Assay: first-order primary biodegradation rate constant k (sorption-corrected, fDis-corrected) (d-1); higher = faster biodegradation
Summary of the method: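 River water with sieved sediment (50 g wet solid L^–1) from German, Swiss, Spanish and Greek river segments was spiked with 129 compounds at 1 μg L^–1 each. It was shaken in the dark at river water temperature (20.5 ± 3.5 °C) for 10 days. Filtered water-phase subsamples were analysed by UHPLC-Orbitrap-MS/MS. First-order k came from log peak-area regression over three replicates, corrected for azide-sterilised sorption-control dissipation and divided by dissolved fraction; invalid fits excluded.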

[1] = river segment: Germany (DE) H_Contam, incubation temperature 24 °C
[2] = river segment: Germany (DE) T_Contam, incubation temperature 24 °C
[3] = river segment: Germany (DE) T_Pris, incubation temperature 24 °C
[4] = river segment: Greece (EL) A_Contam, incubation temperature 19 °C
[5] = river segment: Greece (EL) G_Contam, incubation temperature 19 °C
[6] = river segment: Greece (EL) G_Pris, incubation temperature 19 °C
[7] = river segment: Greece (EL) L_Contam, incubation temperature 19 °C
[8] = river segment: Spain (ES) B_Contam, incubation temperature 24 °C
[9] = river segment: Spain (ES) L_Contam, incubation temperature 24 °C
[10] = river segment: Switzerland (CH) C_Contam, incubation temperature 17 °C
[11] = river segment: Switzerland (CH) R_Contam, incubation temperature 17 °C
[12] = river segment: Switzerland (CH) U_Contam, incubation temperature 17 °C
[13] = river segment: Switzerland (CH) U_Pris, incubation temperature 17 °C

| first-order primary biodegradation rate constant k [1] | first-order primary biodegradation rate constant k [2] | first-order primary biodegradation rate constant k [3] | first-order primary biodegradation rate constant k [4] | first-order primary biodegradation rate constant k [5] | first-order primary biodegradation rate constant k [6] | first-order primary biodegradation rate constant k [7] | first-order primary biodegradation rate constant k [8] | first-order primary biodegradation rate constant k (river segment: Spain (ES) F_Pris_Salt, incubation temperature 24 °C) | first-order primary biodegradation rate constant k [9] | first-order primary biodegradation rate constant k [10] | first-order primary biodegradation rate constant k [11] | first-order primary biodegradation rate constant k [12] | first-order primary biodegradation rate constant k [13] | first-order primary biodegradation rate constant k (river segment: Spain (ES) C_Contam, incubation temperature 24 °C) | SMILES |
| --- | --- | --- | --- | --- | --- | --- | --- | --- | --- | --- | --- | --- | --- | --- | --- |
| 0.299 | 0.901 | 0.3 | 0.39 | 0.342 | 0.147 | 0.665 | 2.88 | 0.0637 | 0.568 | 0.114 | 0.395 | 0.508 | 0.447 | – | CC(C)NCC(O)COc1ccc(CC(N)=O)cc1 (centres undefined) [Atenolol] |
| 0.0119 | 0.0934 | 0.0124 | 0.285 | 0.00542 | 0.308 | 0.262 | 0.0257 | – | 0.0693 | 0.0127 | 0.0142 | 0.0268 | 0.103 | 0.0212 | CC(=O)NC[C@H]1CN(c2ccc(N3CCOCC3)c(F)c2)C(=O)O1 [Linezolid] |

| SMILES | first-order primary biodegradation rate constant k [1] | first-order primary biodegradation rate constant k [2] | first-order primary biodegradation rate constant k [3] | first-order primary biodegradation rate constant k [4] | first-order primary biodegradation rate constant k [5] | first-order primary biodegradation rate constant k [6] | first-order primary biodegradation rate constant k [7] | first-order primary biodegradation rate constant k [8] | first-order primary biodegradation rate constant k (river segment: Spain (ES) F_Pris_Salt, incubation temperature 24 °C) | first-order primary biodegradation rate constant k [9] | first-order primary biodegradation rate constant k [10] | first-order primary biodegradation rate constant k [11] | first-order primary biodegradation rate constant k [12] | first-order primary biodegradation rate constant k [13] | first-order primary biodegradation rate constant k (river segment: Spain (ES) C_Contam, incubation temperature 24 °C) |
| --- | --- | --- | --- | --- | --- | --- | --- | --- | --- | --- | --- | --- | --- | --- | --- |
| Cc1ccc(NC(=O)N(C)C)cc1Cl [Chlortoluron] | 0.0585 | 0.156 | 0.00289 | 0.306 | 0.0396 | 0.423 | 0.139 | 0.0189 | – | 0.114 | – | – | 0.0378 | 0.0569 | – |
